Experimental data reported in patent publication US10189809B2, “SGC stimulators” (Ironwood Pharmaceuticals, Inc., priority 2010, dated 2019).
Like-named read-outs stand apart in the source and are kept apart here.

Tests used:
[1] = target: T1, soluble guanylate cyclase (sGC) (Homo sapiens (Human), UniProt Q02108+Q02153); test: sGC-HEK-cGMP assay run in the absence of SNP (HEK WC assay); format: cell-based; conditions: compound at 30 μM, absence of SNP
Description: Human embryonic kidney cells (HEK293), endogenously expressing soluble guanylate cyclase (sGC), were used to evaluate the activity of test compounds. Compounds stimulating the sGC receptor should cause an increase in the intracellular concentration of cGMP. HEK 293 cells were seeded in Dulbecco's Modification of Eagle's Medium supplemented with fetal bovine serum (10% final) and L-glutamine (2 mM final) in a 200 μL volume at a density of 1×10^5 cells/well in a poly-D-lysine coated 96 well flat bottom plate and grown overnight at 37° C. Medium was aspirated and cells were washed with 1× Hank's Buffered Saline Salt Solution (200 μL). Cells were then incubated for 15 minutes at 37° C. with 0.5 mM 3-isobutyl-1-methylxanthine (200 μL). Test article was then added to the assay mixture (2 μL) and incubated at 37° C. for 10 minutes. After the 10 minute incubation, the assay mixture was aspirated and 0.1M HCl (200 μL) was added to the cells. The plate was incubated at 4° C. for 30 minutes in the 0.1M HCl to stop the reaction and lysed the cells. The plates were then centrifuged at 1,200 g for 5 minutes at room temperature. Supernatants were collected and transferred to a new flat bottom 96 well plate for analysis. Vehicle controls were carried out using DMSO (1%). A known sGC stimulator, BAY 41-2272, was used as the positive control. Samples were diluted with an equal volume of 1 M Ammonium Acetate (pH 7) to neutralize samples for better chromatography. A 2× cGMP standard curve was prepared in 0.1 M HCl and then diluted with an equal volume of 1 M Ammonium Acetate, with the following final concentrations in nM: 1024, 512, 256, 128, 64, 32, 16, 8, 4, 2, 1. cGMP concentrations were determined from each sample using the LC/MS conditions (Table 2 below) and calculated standard curve. EC50 values were calculated from concentration-response curves generated with GraphPad Prism Software.

[2] = target: T1, soluble guanylate cyclase (sGC); test: sGC-HEK-cGMP assay run with SNP incubation (HEK WC assay); format: cell-based; conditions: for HEK WC Assay (fold increase at 30 μM in the presence of 10 μM SNP): compound at 30 μM; for EC50: in the presence of 10 uM SNP
Method in brief: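 HEK293 cells with endogenous sGC were pretreated with 0.5 mM IBMX for 15 min at 37 °C, then exposed to test compound plus sodium nitroprusside for 10 min at 37 °C.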

[3] = read-out: HEK WC Assay (% Emax at 1 μM with 10 uM SNP)
[4] = read-out: HEK WC Assay (% Emax at 10 μM with 10 uM SNP)
[5] = read-out: HEK WC Assay (% Emax at 30 μM with 10 uM SNP)

T1 sequence (Q02153 whole entry): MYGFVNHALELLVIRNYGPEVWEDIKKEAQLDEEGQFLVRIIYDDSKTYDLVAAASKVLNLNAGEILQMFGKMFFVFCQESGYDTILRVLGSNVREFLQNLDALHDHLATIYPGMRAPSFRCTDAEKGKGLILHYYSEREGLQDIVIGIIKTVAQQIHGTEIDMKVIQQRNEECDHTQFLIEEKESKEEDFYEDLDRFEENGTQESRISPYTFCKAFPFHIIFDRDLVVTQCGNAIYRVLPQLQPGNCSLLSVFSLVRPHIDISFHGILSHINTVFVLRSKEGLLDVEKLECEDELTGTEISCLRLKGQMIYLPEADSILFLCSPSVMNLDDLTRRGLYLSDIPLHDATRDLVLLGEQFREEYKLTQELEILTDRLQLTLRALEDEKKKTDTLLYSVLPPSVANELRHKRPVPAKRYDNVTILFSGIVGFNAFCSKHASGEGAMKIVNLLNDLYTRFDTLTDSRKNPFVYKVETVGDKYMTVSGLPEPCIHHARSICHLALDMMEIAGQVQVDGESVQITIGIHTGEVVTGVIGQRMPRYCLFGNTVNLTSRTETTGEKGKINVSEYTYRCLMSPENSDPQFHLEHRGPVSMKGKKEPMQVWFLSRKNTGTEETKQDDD
T1 sequence (Q02108 whole entry): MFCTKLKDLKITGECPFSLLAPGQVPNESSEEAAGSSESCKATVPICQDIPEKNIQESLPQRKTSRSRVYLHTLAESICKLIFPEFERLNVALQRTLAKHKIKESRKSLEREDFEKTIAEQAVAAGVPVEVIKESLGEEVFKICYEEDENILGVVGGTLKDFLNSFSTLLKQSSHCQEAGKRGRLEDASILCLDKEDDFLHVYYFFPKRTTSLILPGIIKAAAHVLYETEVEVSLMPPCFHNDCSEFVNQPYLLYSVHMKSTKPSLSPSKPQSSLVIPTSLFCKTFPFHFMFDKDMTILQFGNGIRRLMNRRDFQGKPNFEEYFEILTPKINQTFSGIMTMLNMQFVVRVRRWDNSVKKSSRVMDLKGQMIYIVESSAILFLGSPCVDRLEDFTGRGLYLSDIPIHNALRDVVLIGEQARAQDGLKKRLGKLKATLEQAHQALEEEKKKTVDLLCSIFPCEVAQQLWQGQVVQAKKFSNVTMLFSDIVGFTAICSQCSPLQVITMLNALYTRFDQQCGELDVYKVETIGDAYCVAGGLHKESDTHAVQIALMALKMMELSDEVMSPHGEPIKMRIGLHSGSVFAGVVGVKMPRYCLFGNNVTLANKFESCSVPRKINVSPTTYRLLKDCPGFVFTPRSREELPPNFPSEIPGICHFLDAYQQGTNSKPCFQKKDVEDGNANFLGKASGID

Row | HEK WC Assay (fold increase at 30 μM in the absence of SNP) [1] | HEK WC Assay (fold increase at 30 μM in the presence of 10 μM SNP) [2] | EC50 [2] [µM] | Emax [2, 3] [%] | Emax [2, 4] [%] | Emax [2, 5] [%] | Emax at 10 µM ([2]; read-out: HEK WC Assay (% Emax at 10 μM/with 10 uM SNP)) [%] | Emax at 30 µM ([2]; read-out: HEK WC Assay (% Emax at 30 μM/with 10 uM SNP)) [%] | Compound
1 | E (E = 10 to <20 fold increase) | E (E = 10 to <20 fold increase) | < 20 | 10 to 20 | 40 to 60 | 60 to 80 |  |  | Nc1nc(-c2cc(-c3ccon3)n(Cc3ccccc3F)n2)ncc1NC(=O)c1cccc(O)n1 [Compound I-193]
2 | B (B = 1 to <2 fold increase) | C (C = 2 to <5 fold increase) | 300 to 600 | 0 to 10 | 0 to 10 | 0 to 10 |  |  | Clc1ccccc1Cn1nc(-c2ncccn2)cc1-c1ccon1 [Compound I-200]
3 | C (C = 2 to <5 fold increase) | D (D = 5 to <10 fold increase) | 100 to 300 | 0 to 10 | 40 to 60 | 10 to 20 |  |  | COc1cnc(-c2cc(-c3ccon3)n(Cc3ccccc3F)n2)nc1N [Compound I-173]
4 | C (C = 2 to <5 fold increase) | E (E = 10 to <20 fold increase) |  |  | 20 to 40 | 20 to 40 |  |  | CC(C)(C)OC(=O)Nc1cnc(-c2cc(-c3ccon3)n(Cc3ccccc3F)n2)nc1O [Compound I-164]
5 | E (E = 10 to <20 fold increase) | E (E = 10 to <20 fold increase) | < 20 | 60 to 80 | 80 to 100 | 80 to 100 |  |  | CC1(C(=O)Nc2cnc(-c3cc(-c4ccon4)n(Cc4ccccc4F)n3)nc2N)CCCCC1 [Compound I-231]
6 | E (E = 10 to <20 fold increase) | E (E = 10 to <20 fold increase) | < 20 | 60 to 80 | 80 to 100 | > 120 |  |  | Cc1ccc(C(=O)Nc2cnc(-c3cc(-c4ccon4)n(Cc4ccccc4F)n3)nc2N)cc1 [Compound I-181]
7 | C (C = 2 to <5 fold increase) | D (D = 5 to <10 fold increase) | 20 to 40 |  | 60 to 80 | 80 to 100 |  |  | Nc1cnc(-c2cc(-c3ncco3)n(Cc3ccccc3F)n2)nc1N [Compound I-149]
8 | B (B = 1 to <2 fold increase) | B (B = 1 to <2 fold increase) |  |  | 0 to 10 | 0 to 10 |  |  | Fc1ccccc1Cn1nc(-c2cccc(Br)n2)cc1-c1ccccn1 [Compound I-308, 2-Bromo-6-(1-(2-fluorobenzyl)-5-(pyridin-2-yl)-1H-pyrazol-3-yl)pyridine]
9 | C (C = 2 to <5 fold increase) | F (F = 20 to <30 fold increase) | < 20 |  | 60 to 80 | 60 to 80 |  |  | Cc1cc(Cl)nc(-c2cc(-c3ccon3)n(Cc3ccccc3F)n2)n1 [Compound I-299]

Continued, compound first:

Row | Compound | HEK WC Assay (fold increase at 30 μM in the absence of SNP) [1] | HEK WC Assay (fold increase at 30 μM in the presence of 10 μM SNP) [2] | EC50 [2] [µM] | Emax [2, 3] [%] | Emax [2, 4] [%] | Emax [2, 5] [%] | Emax at 10 µM ([2]; read-out: HEK WC Assay (% Emax at 10 μM/with 10 uM SNP)) [%] | Emax at 30 µM ([2]; read-out: HEK WC Assay (% Emax at 30 μM/with 10 uM SNP)) [%]
10 | O=S(=O)(c1ccc(F)cc1)c1cnc(-c2cc(-c3ccon3)n(Cc3ccccc3F)n2)nc1O [Compound I-241] | D (D = 5 to <10 fold increase) | E (E = 10 to <20 fold increase) | < 20 | 20 to 40 | 60 to 80 | 40 to 60 |  | 
11 | O=S(=O)(c1cnc(-c2cc(-c3ccon3)n(Cc3ccccc3F)n2)nc1O)N1CCOCC1 [Compound I-224] | C (C = 2 to <5 fold increase) | E (E = 10 to <20 fold increase) | < 20 | 20 to 40 | 40 to 60 | 40 to 60 |  | 
12 | Nc1nc(-c2cc(-c3ccon3)n(Cc3ccccc3F)n2)ncc1NC(=O)C(F)(F)c1ccccc1 [Compound I-244] | D (D = 5 to <10 fold increase) | E (E = 10 to <20 fold increase) | 20 to 40 | 20 to 40 | 40 to 60 | 40 to 60 |  | 
13 | O=c1[nH]c2cnc(-c3cc(-c4ccon4)n(Cc4ccccc4F)n3)nc2[nH]1 [Compound I-281] | D (D = 5 to <10 fold increase) | E (E = 10 to <20 fold increase) | 20 to 40 |  | 60 to 80 | 40 to 60 |  | 
14 | Nc1nc(-c2cc(-c3ccon3)n(Cc3ccccc3F)n2)ncc1NC(=O)c1cccc(Cl)c1 [Compound I-187] | D (D = 5 to <10 fold increase) | F (F = 20 to <30 fold increase) | < 20 | 40 to 60 | 60 to 80 | 60 to 80 |  | 
15 | O=C(Nc1cnc(-c2cc(-c3ncco3)n(Cc3ccccc3F)n2)nc1O)c1ccccc1 [Compound I-159] | B (B = 1 to <2 fold increase) | D (D = 5 to <10 fold increase) |  |  | 20 to 40 | 20 to 40 |  | 
16 | CO[C@@](C(=O)Nc1cnc(-c2cc(-c3ccon3)n(Cc3ccccc3F)n2)nc1N)(c1ccccc1)C(F)(F)F [Compound I-229] | C (C = 2 to <5 fold increase) | E (E = 10 to <20 fold increase) | 20 to 40 | 20 to 40 | 40 to 60 | 20 to 40 |  | 
17 | Fc1ccccc1Cn1nc(-c2ccccn2)cc1-n1cncn1 [Compound I-289] | B (B = 1 to <2 fold increase) | B (B = 1 to <2 fold increase) |  |  | 0 to 10 | 0 to 10 |  | 
18 | Fc1ccccc1Cn1nc(-c2ccccn2)cc1N1CCCC1 [Compound I-288] | C (C = 2 to <5 fold increase) | C (C = 2 to <5 fold increase) |  |  |  |  |  | 
19 | COc1ccc(CNc2nc(-c3cc(-c4ccon4)n(Cc4ccccc4F)n3)ncc2C(C)(C)O)cc1 [Compound I-135] | C (C = 2 to <5 fold increase) | D (D = 5 to <10 fold increase) |  |  | 10 to 20 | 10 to 20 | 0 to 10 | 0 to 10
20 | c1cnc(-c2cc(-c3ccon3)n(Cc3cscn3)n2)nc1 [Compound I-204] | B (B = 1 to <2 fold increase) | C (C = 2 to <5 fold increase) |  | 0 to 10 | 0 to 10 | 0 to 10 |  | 
21 | Fc1cccc(Cn2nc(-c3ncccn3)cc2-c2ccon2)c1F [Compound I-198] | D (D = 5 to <10 fold increase) | E (E = 10 to <20 fold increase) | < 20 | 40 to 60 | 40 to 60 | 60 to 80 |  | 
22 | CC1(C(=O)Nc2cnc(-c3cc(-c4ccon4)n(Cc4ccccc4F)n3)nc2N)CCCO1 (stereo not shown) [Compound I-232] | C (C = 2 to <5 fold increase) | E (E = 10 to <20 fold increase) | < 20 | 20 to 40 | 60 to 80 | 60 to 80 |  | 
23 | NCC(=O)Nc1cnc(-c2cc(-c3ccon3)n(Cc3ccccc3F)n2)nc1N [Compound I-213] | D (D = 5 to <10 fold increase) | E (E = 10 to <20 fold increase) | 60 to 100 | 0 to 10 | 10 to 20 | 20 to 40 |  | 
24 | c1cnc(-c2cc(-c3ccon3)n(Cc3cnccn3)n2)nc1 [Compound I-221] | B (B = 1 to <2 fold increase) | C (C = 2 to <5 fold increase) |  | 0 to 10 | 0 to 10 | 10 to 20 |  | 
25 | Oc1ccccc1Cn1nc(-c2ncccn2)cc1-c1ccon1 [Compound I-207] | B (B = 1 to <2 fold increase) | C (C = 2 to <5 fold increase) | 900 to 1200 | 0 to 10 | 0 to 10 | 0 to 10 |  | 
